Here are results for 4 compounds from paper PMC11859074, “Exploring the Anticancer Potential of NO-Donor Oxadiazole Assemblies Against Malignant Pleural Mesothelioma” (Pharmaceutics, 2025).

Read-outs that look alike come from different tables or passages of the source.

Data set [1] in a line: NO release assay (Griess assay, phosphate buffer with L-cysteine). The note with it: for NO Released (%) 1 h / NO Released (%) 24 h / NO Released (%) 48 h: % NO2− (μmol/μmol) relative to initial concentration (100 μM), L-cysteine; for NO Released (%) 1 h: phosphate buffer pH 7.4, 37 °C; for NO Released (%) 24 h: phosphate buffer pH 7.4, 24 h; for NO Released (%) 48 h: phosphate buffer pH 7.4, 48 h; for Fold Change 24 h/1 h: ratio of NO released at 24 h to 1 h; for Fold Change 48 h/1 h: ratio of NO released at 48 h to 1 h; for Fold Change 48 h/24 h: ratio of NO released at 48 h to 24 h. Background: Nitrite, measured by Griess reagent, commonly stands in for NO production.

The subject of data set [2] is AB1 (mouse malignant mesothelioma cell line). The experiment in a line: MTT cytotoxicity assay, AB1 cells. The class given is cell-based. The settings on record: 72 h exposure. How it is done: (§1) AB1 (mouse malignant mesothelioma cell line) and JU77 (human mesothelioma cell line) were obtained from Cell Bank Australia; MRC-5 (human embryonic lung fibroblast cell line) was obtained from ATCC. […] Cells were grown in tissue culture flasks (75 cm^2 and 25 cm^2, SPL Life Sciences, Pocheon, South Korea). […] The cytotoxicity of compounds was determined using the MTT colorimetric test. Cells were harvested from culture flasks by trypsinization and seeded into Cellstar 96-well microculture plates at a seeding density of 6000 cells per well (6 × 10^4 cells per mL). After the cells were allowed to resume exponential growth for 24 h, they were exposed to drugs at different concentrations in media for 72 h. The tested compounds were diluted in the complete medium at the desired concentrations added to each well (100 μL) and serially diluted to other wells. After 72 h of exposure, the medium was replaced with MTT (5 mg mL^−1, 100 μL per well) and incubated for an additional 50 min. Subsequently, the medium was aspirated, and the purple formazan crystals formed in viable cells were dissolved in DMSO (100 μL per well). […] The evaluation was based on means from at least three independent experiments, each comprising three replicates per concentration level.
In general terms: Formazan colour is commonly taken as a measure of viable cells.

The subject of data set [3] is MRC-5 (human embryonic lung fibroblast cell line). Description: MTT cytotoxicity assay, MRC-5 cells. The format is cell-based. The settings on record: MRC5, 72 h exposure. How it is done: as §1
Data set [4] concerns JU77 (human mesothelioma cell line). The experiment in a line: cells. The format is cell-based. The note with it: for IC50: Homo sapiens, MTT assay, 72 h exposure; for SFJU77 (selectivity factor): IC50(MRC-5)/IC50(JU77). As to the method: as §1
Data set [5] relates to AB1 and JU77 mesothelioma cell lines. The experiment in a line: cells. The format is cell-based, mouse and human. The settings on record: for IC50: MPM, range over AB1 and JU77, 72 h MTT, read-out: IC50 values in both cell lines. As to the method: as §1
The test system of data set [6] is MRC-5 (human embryonic lung fibroblast cell line). Details: method as in doi:10.1039/D4NJ02047B. The note with it: MTT assay, 72 h exposure; ref [33]; cited from earlier work.
Data set [7] deals with AB1 (mouse malignant mesothelioma cell line). Set-up: method as in doi:10.1039/D4NJ02047B. The note with it: MTT assay, 72 h exposure; ref [33]; cited from earlier work.
Data set [8] relates to JU77 (human mesothelioma cell line). Set-up: method as in doi:10.1039/D4NJ02047B. The settings on record: ref [33], cited from earlier work.

A word on the IC50: it is the concentration that inhibits the measured activity by half. As for `N#Cc1c(-c2ncon2)no[n+]1[O-]` [Compound 2l, 3-Cyano-4-(1,2,4-oxadiazolyl)furoxan], in data set [1], the “NO Released (%) 1 h” value was found to be 42 ± 5%, the “NO Released (%) 24 h” value is on record as 68 ± 8%, the “NO Released (%) 48 h” value turned out to be 72 ± 8% and the “Fold Change 24 h/1 h” value is given as 1.6. In data set [1], the “Fold Change 48 h/1 h” value is given as 1.7 and the “Fold Change 48 h/24 h” value came out at 1.1. The same compound showed a half-inhibitory concentration (IC50) in data set [2] of 7 ± 1.3 µM. This compound returned an IC50 in data set [3] of 4.6 ± 1 µM. For the same compound, in data set [4], the IC50 turned out to be 5.4 ± 1.3 µM and the “SFJU77 (selectivity factor)” value is 0.9. Moreover, in data set [5], the IC50 is 5.4 to 7 µM.
Regarding `N.N.[Cl][Pt][Cl]` [Cisplatin, cisplatin], the IC50 in data set [6] was 3.1 ± 1.2 µM; in data set [7], 5.8 ± 1 µM; in data set [8] (MTT assay, 72 h exposure) it was 4.2 ± 0.5 µM. Further, the “SFJU77 (selectivity factor)” value in data set [8] (IC50(MRC-5)/IC50(JU77)) is recorded as 0.7.
Turning to `N#Cc1c(-c2noc(-c3ccccc3[N+](=O)[O-])n2)no[n+]1[O-]` [Compound 2d, 3-Cyano-4-(5-(2-nitrophenyl)-1,2,4-oxadiazolyl)furoxan], in data set [1], the “NO Released (%) 1 h” value was 69 ± 1%, the “NO Released (%) 24 h” value turned out to be 86 ± 3%, the “NO Released (%) 48 h” value was determined as 89 ± 3% and the “Fold Change 24 h/1 h” value is 1.2. In addition, in data set [1], the “Fold Change 48 h/1 h” value turned out to be 1.3 and the “Fold Change 48 h/24 h” value came to 1.0. Moreover, it took 1.8 ± 0.2 µM to reach half-maximal inhibition in data set [2] (IC50). For the same compound, in data set [3], the IC50 amounted to 2.2 ± 0.2 µM. In data set [4], the IC50 turned out to be 0.87 ± 0.07 µM and the “SFJU77 (selectivity factor)” value is 2.5. The “times higher cytotoxicity in human MPM cells compared to human lung fibroblasts” value in data set [4] (human, 72 h) is reported as 2.4-3.6 times. Also, the IC50 in data set [5] lay within 0.87 to 1.8 µM.
On to `COCc1nc(-c2no[n+]([O-])c2C#N)no1` [Compound 2f, 3-Cyano-4-(5-(methoxymethyl)-1,2,4-oxadiazolyl)furoxan], for which, in data set [1], the “NO Released (%) 1 h” value came to 50 ± 7%, the “NO Released (%) 24 h” value is reported as 66 ± 11%, the “NO Released (%) 48 h” value is reported as 71 ± 11% and the “Fold Change 24 h/1 h” value is recorded as 1.3. Further, in data set [1], the “Fold Change 48 h/1 h” value was found to be 1.4 and the “Fold Change 48 h/24 h” value is recorded as 1.1. The compound further returned an IC50 in data set [2] of more than 150 µM. The 50% inhibitory concentration (IC50) in data set [3] was more than 150 µM. In data set [4], this compound had a half-inhibitory concentration (IC50) of more than 150 µM. Moreover, the “cytotoxicity (in words)” value in data set [5] is given as “no cytotoxic effects”.
